Test results: patent publication US10695337B2, “Piperidin-4-yl azetidine derivatives as JAK1 inhibitors” (Incyte Corporation, priority 2010, dated 2020)

The compounds below were run against human JAK1 (a.a. 837-1142) (assay: In vitro JAK kinase assay (HTRF, phosphorylation of a biotinylated peptide), JAK1). Conditions: measured at 1 mM ATP; JAK2 IC50 / JAK1 IC50.
Assay type: biochemical
Outline: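 N-terminally His-tagged catalytic domains, baculovirus-expressed in insect cells and purified, were used as enzyme. Reactions ran 1 hr at room temperature and were stopped with a mix of 45 mM EDTA, 300 nM SA-APC and 6 nM Eu-Py20. The HTRF signal was read after 40 min of antibody binding.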
In the case of `COc1cc(C(=O)N2CCC(N3CC(CC#N)(n4cc(-c5ncnc6[nH]ccc56)cn4)C3)CC2)cc(Cl)n1` [Example 37, {1-[1-(2-chloro-6-methoxyisonicotinoyl)piperidin-4-yl]-3-[4-(7H-pyrrolo[2,3-d]pyrimidin-4-yl)-1H-pyrazol-1-yl]azetidin-3-yl}acetonitrile], the “IC50 Ratio JAK2/JAK1” value is reported as 2.1.
`N#CCC1(n2cc(-c3ccnc4[nH]ccc34)cn2)CN(C2CCN(C(=O)c3ccc(O)c(F)c3)CC2)C1` [Example 296] was tested, and the “IC50 Ratio JAK2/JAK1” value was 4.6.
`N#CCC1(n2cc(-c3ncnc4[nH]ccc34)cn2)CN(C2CCN(C(=O)C3CCCCC3)CC2)C1` [Example 8, {1-[1-(cyclohexylcarbonyl)piperidin-4-yl]-3-[4-(7H-pyrrolo[2,3-d]pyrimidin-4-yl)-1H-pyrazol-1-yl]azetidin-3-yl}acetonitrile] was tested, and the “IC50 Ratio JAK2/JAK1” value was 11.0.
For `N#CCC1(n2cc(-c3ncnc4[nH]ccc34)cn2)CN(C2CCN(C(=O)Nc3ncccc3C(F)(F)F)CC2)C1` [Example 201, 4-{3-(cyanomethyl)-3-[4-(7H-pyrrolo[2,3-d]pyrimidin-4-yl)-1H-pyrazol-1-yl]azetidin-1-yl}-N-[3-(trifluoromethyl)pyridin-2-yl]piperidine-1-carboxamide], the “IC50 Ratio JAK2/JAK1” value was 3.6.
`N#CCC1(n2cc(-c3ncnc4[nH]ccc34)cn2)CN(C2CCN(Cc3cc4ccccc4nc3Cl)CC2)C1` [Example 214, {1-{1-[(2-chloroquinolin-3-yl)methyl]piperidin-4-yl}-3-[4-(7H-pyrrolo[2,3-d]pyrimidin-4-yl)-1H-pyrazol-1-yl]azetidin-3-yl}acetonitrile] was tested, and the “IC50 Ratio JAK2/JAK1” value was 2.5.
In the case of `N#CCC1(n2cc(-c3ncnc4[nH]ccc34)cn2)CN(C2CCN(C(=O)c3cc(F)cc(F)c3)CC2)C1` [Example 3, {1-[1-(3,5-difluorobenzoyl)piperidin-4-yl]-3-[4-(7H-pyrrolo[2,3-d]pyrimidin-4-yl)-1H-pyrazol-1-yl]azetidin-3-yl}acetonitrile], the “IC50 Ratio JAK2/JAK1” value is reported as 11.0.
For `N#CCC1(n2ccc(-c3ncnc4[nH]ccc34)c2)CN(C2CCN(C(=O)c3ccc(C(F)(F)F)cc3F)CC2)C1` [Example 272, {1-{1-[2-fluoro-4-(trifluoromethyl)benzoyl]piperidin-4-yl}-3-[3-(7H-pyrrolo[2,3-d]pyrimidin-4-yl)-1H-pyrrol-1-yl]azetidin-3-yl}acetonitrile], the “IC50 Ratio JAK2/JAK1” value was 6.5.
With `N#CCC1(n2cc(-c3ncnc4[nH]ccc34)cn2)CN(C2CCN(C(=O)Nc3ccc(Cl)cc3F)CC2)C1` [Example 178, N-(4-chloro-2-fluorophenyl)-4-{3-(cyanomethyl)-3-[4-(7H-pyrrolo[2,3-d]pyrimidin-4-yl)-1H-pyrazol-1-yl]azetidin-1-yl}piperidine-1-carboxamide] the “IC50 Ratio JAK2/JAK1” value was 6.5.
With `COc1cc(OC)cc(C(=O)N2CCC(N3CC(CC#N)(n4cc(-c5ncnc6[nH]ccc56)cn4)C3)CC2)c1` [Example 33, {1-[1-(3,5-dimethoxybenzoyl)piperidin-4-yl]-3-[4-(7H-pyrrolo[2,3-d]pyrimidin-4-yl)-1H-pyrazol-1-yl]azetidin-3-yl}acetonitrile] the “IC50 Ratio JAK2/JAK1” value was 0.5.
`N#CCC1(n2cc(-c3ncnc4[nH]ccc34)cn2)CN(C2CCN(C(=O)Nc3cccc(Cl)c3)CC2)C1` [Example 183, N-(3-chlorophenyl)-4-{3-(cyanomethyl)-3-[4-(7H-pyrrolo[2,3-d]pyrimidin-4-yl)-1H-pyrazol-1-yl]azetidin-1-yl}piperidine-1-carboxamide] was tested, and the “IC50 Ratio JAK2/JAK1” value was 3.8.
In the case of `COc1cc(F)cc(C(=O)N2CCC(N3CC(CC#N)(n4cc(-c5ncnc6[nH]ccc56)cn4)C3)CC2)c1` [Example 36, {1-[1-(3-fluoro-5-methoxybenzoyl)piperidin-4-yl]-3-[4-(7H-pyrrolo[2,3-d]pyrimidin-4-yl)-1H-pyrazol-1-yl]azetidin-3-yl}acetonitrile], the “IC50 Ratio JAK2/JAK1” value is reported as 2.3.
With `Cc1ccc(Cl)cc1NC(=O)N1CCC(N2CC(CC#N)(n3cc(-c4ncnc5[nH]ccc45)cn3)C2)CC1` [Example 168, N-(5-chloro-2-methylphenyl)-4-{3-(cyanomethyl)-3-[4-(7H-pyrrolo[2,3-d]pyrimidin-4-yl)-1H-pyrazol-1-yl]azetidin-1-yl}piperidine-1-carboxamide] the “IC50 Ratio JAK2/JAK1” value was 2.6.
With `N#CCC1(n2cc(-c3ncnc4[nH]ccc34)cn2)CN(C2CCN(C(=O)c3ccc(C(F)(F)F)cc3F)CC2)C1` [Example 82, {1-{1-[2-fluoro-4-(trifluoromethyl)benzoyl]piperidin-4-yl}-3-[4-(7H-pyrrolo[2,3-d]pyrimidin-4-yl)-1H-pyrazol-1-yl]azetidin-3-yl} acetonitrile] the “IC50 Ratio JAK2/JAK1” value was 5.3.
`N#CCC1(n2ccc(-c3ncnc4[nH]ccc34)c2)CN(C2CCN(C(=O)c3ccc(F)c(F)c3)CC2)C1` [Example 277, {1-[1-(3,4-difluorobenzoyl)piperidin-4-yl]-3-[3-(7H-pyrrolo[2,3-d]pyrimidin-4-yl)-1H-pyrrol-1-yl]azetidin-3-yl}acetonitrile] was tested, and the “IC50 Ratio JAK2/JAK1” value was 9.8.
With `N#CCC1(n2cc(-c3ncnc4[nH]ccc34)cn2)CN(C2CCN(C(=O)c3ccc(O)c(Cl)c3)CC2)C1` [Example 84, {1-[1-(3-chloro-4-hydroxybenzoyl)piperidin-4-yl]-3-[4-(7H-pyrrolo[2,3-d]pyrimidin-4-yl)-1H-pyrazol-1-yl]azetidin-3-yl}acetonitrile] the “IC50 Ratio JAK2/JAK1” value was 6.5.
`N#CCC1(n2ccc(-c3ncnc4[nH]ccc34)c2)CN(C2CCN(C(=O)c3c(F)cc(C#N)cc3F)CC2)C1` [Example 265, 4-[(4-{3-(cyanomethyl)-3-[3-(7H-pyrrolo[2,3-d]pyrimidin-4-yl)-1H-pyrrol-1-yl]azetidin-1-yl}piperidin-1-yl)carbonyl]-3,5-difluorobenzonitrile] was tested, and the “IC50 Ratio JAK2/JAK1” value was 6.6.
In the case of `N#CCC1(n2cc(-c3c(F)cnc4[nH]ccc34)cn2)CN(C2CCN(C(=O)c3ccnc(C(F)(F)F)n3)CC2)C1` [Example 353, [3-[4-(5-Fluoro-1H-pyrrolo[2,3-b]pyridin-4-yl)-1H-pyrazol-1-yl]-1-(1-{[2-(trifluoromethyl)pyrimidin-4-yl]carbonyl}piperidin-4-yl)azetidin-3-yl]acetonitrile], the “IC50 Ratio JAK2/JAK1” value is reported as 5.0.
In the case of `N#CCC1(n2cc(-c3ncnc4[nH]ccc34)cn2)CN(C2CCN(Cc3c(F)cccc3Cl)CC2)C1` [Example 227, {1-[1-(2-chloro-6-fluorobenzyl)piperidin-4-yl]-3-[4-(7H-pyrrolo[2,3-d]pyrimidin-4-yl)-1H-pyrazol-1-yl]azetidin-3-yl}acetonitrile], the “IC50 Ratio JAK2/JAK1” value is reported as 7.9.
In the case of `N#CCC1(n2cc(-c3ncnc4[nH]ccc34)cn2)CN(C2CCN(C(=O)Cc3c(Cl)cccc3Cl)CC2)C1` [Example 112, {1-{1-[(2,6-dichlorophenyl)acetyl]piperidin-4-yl}-3-[4-(7H-pyrrolo[2,3-d]pyrimidin-4-yl)-1H-pyrazol-1-yl]azetidin-3-yl} acetonitrile], the “IC50 Ratio JAK2/JAK1” value is reported as 8.2.
With `Cc1nc(NC(=O)N2CCC(N3CC(CC#N)(n4cc(-c5ncnc6[nH]ccc56)cn4)C3)CC2)sc1C` [Example 192, 4-{3-(cyanomethyl)-3-[4-(7H-pyrrolo[2,3-d]pyrimidin-4-yl)-1H-pyrazol-1-yl]azetidin-1-yl}-N-(4,5-dimethyl-1,3-thiazol-2-yl)piperidine-1-carboxamide] the “IC50 Ratio JAK2/JAK1” value was 3.0.
With `N#CCC1(n2cc(-c3ncnc4[nH]ccc34)cn2)CN(C2CCN(C(=O)Nc3ccsc3)CC2)C1` [Example 179, 4-{3-(cyanomethyl)-3-[4-(7H-pyrrolo[2,3-d]pyrimidin-4-yl)-1H-pyrazol-1-yl]azetidin-1-yl}-N-3-thienylpiperidine-1-carboxamide] the “IC50 Ratio JAK2/JAK1” value was 3.8.
